Reference: patent publication US20150147436A1, “PRODUCTION OF CHEESE WITH S. THERMOPHILUS” (DuPont Nutrition BioSciences ApS, priority 2011, published 2015)

Columns and labels:
urease enzyme = test: Floating curd experiment in test tubes (Example 3); conditions: Lactococci + ur(+) S. thermophilus + urease inhibitor, fermented at 35° C. to pH 4.65, heated at about 66° C. (test tube 3)
Description: Four experiments were conducted in which milk was treated with various bacteria. In experiment 1, only Lactococci bacteria were added. In experiment 2, a blend of Lactococci bacteria and ur(+) S. thermophilus bacteria were added. In experiment 3, a blend of Lactococci bacteria, ur(+) S. thermophilus bacteria, and the urease inhibitor flurofamide were added. In experiment 4, only ur(+) S. thermophilus bacteria were added.
In each experiment, the milk was fermented with the bacteria at 35° C. until the cheese reached a pH of 4.65. A sample of the cheese was placed into a test tube, which was heated at about 66° C. for about 10 minutes. After 10 minutes of heating, a small pipette or thin wire was used to agitate the sample. The samples were held at about 66° C. for another ten minutes, at which time the photograph of the test tubes depicted in FIG. 3, was taken.
Test tube 4 is a positive control that contains ur(+) S. thermophilus, which has urease enzymes that can hydrolyze urea in milk.

ur(−) S. thermophilus = test: Acidification of milk by S. thermophilus with or without sodium formate (Example 2); format: cell-based; conditions: 10 ppm sodium formate, 2% milk, 40° C., no Lactococci, 350 minutes
Description: Samples of 2% milk taken from the same source were treated with ur(+) S. thermophilus without formate, ur(−) S. thermophilus without formate, and ur(−) S. thermophilus with 10 ppm sodium formate. Lactoccocci bacteria were not used. The milk was maintained at 40° C., and pH measurements were taken for 350 minutes.
FIG. 2 is a graph showing exemplary results from this experiment.

Structure (SMILES)	floating curd (urease enzyme)	pH decrease effected by the ur(−) S. thermophilus (ur(−) S. thermophilus)
NP(N)(=O)NC(=O)c1ccc(F)cc1 [flurofamide]	no floating curd	
O=C[O-].[Na+] [sodium formate]		significantly accelerated
